Assay [1] is described as follows: Intestinal calcium transport in rats on low calcium diet, chronic i.p. doses. In kind it is in vivo, Sprague-Dawley rats. To be noted: for Ca transport S/M (mean ± SEM): male weanling rats, 0.02% Ca diet, 5 animals; for Activity in stimulating intestinal calcium transport relative to 1,25-(OH)2D3 (in words): summary of Table 1. How it is done: Intestinal calcium transport was determined as described by Perlman et al. (Biochemistry 29, 190–196, 1990).
(§1) Male, weanling Sprague-Dawley rats were placed on Diet 11 (0.47% Ca) diet+AEK for 11 days, followed by Diet 11 (0.02% Ca)+AEK for 31 days. Dosing (i.p.) began 7 days prior to sacrifice. Doses were given on a daily basis, 24 hours apart. The first 10 cm of the intestine was collected for gut transport studies and serum was collected for bone Ca mobilization analysis.

Assay [2] is described as follows: Serum calcium (bone calcium mobilization) in rats on low calcium diet, chronic i.p. doses. To be noted: for Serum Ca (mean ± SEM): male weanling rats, 0.02% Ca diet, 5 animals; for Bone calcium mobilization activity relative to 1,25-(OH)2D3 (in words): summary of Table 1. Set-up: Serum Ca (mean ± SEM): unit not given here. In kind it is in vivo, Sprague-Dawley rats. As to the method: The in vivo tests to determine serum calcium of rats on a low calcium diet provides an insight to […] or bone activity of (20S)-1α-hydroxy-2α-methyl-19-nor-vitamin D3 and (20S)-1α-hydroxy-2β-methyl-19-nor-vitamin D3.
as §1

The target in assay [3] is T1, vitamin D pig intestinal nuclear receptor (Sus scrofa, UniProt A3RGC1).
T1 construct: from tissue; host or cells: pig intestine (nuclear receptor preparation)
T1 sequence (A3RGC1 1-427): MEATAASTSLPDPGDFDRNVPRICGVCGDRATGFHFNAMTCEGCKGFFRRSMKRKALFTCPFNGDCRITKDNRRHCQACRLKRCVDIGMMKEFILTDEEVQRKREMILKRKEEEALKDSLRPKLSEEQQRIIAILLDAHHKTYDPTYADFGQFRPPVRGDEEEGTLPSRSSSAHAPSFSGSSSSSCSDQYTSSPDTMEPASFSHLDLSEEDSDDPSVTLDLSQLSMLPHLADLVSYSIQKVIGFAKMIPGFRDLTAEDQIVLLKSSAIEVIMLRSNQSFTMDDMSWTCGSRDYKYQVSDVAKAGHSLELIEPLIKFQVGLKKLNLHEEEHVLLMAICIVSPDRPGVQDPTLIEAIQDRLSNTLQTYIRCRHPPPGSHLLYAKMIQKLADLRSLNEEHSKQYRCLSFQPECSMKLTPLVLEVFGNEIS
Briefly: Competitive binding of [3H]-1,25-(OH)2-D3 to the porcine intestinal vitamin D receptor. The settings on record: FIG. 1; for Binding to the vitamin D receptor (in words): compared with 1,25-(OH)2D3. As to the method:
FIG. 1 is a graph illustrating the relative activity of (20S)-1α-hydroxy-2α-methyl-19-nor-vitamin D3, (20S)-1α-hydroxy-2β-methyl-19-nor-vitamin D3, and 1α,25-dihydroxyvitamin D3 to compete for binding of [^3H]-1,25-(OH)2-D3 to the vitamin D pig intestinal nuclear receptor; and
Competitive binding of the analogs to the porcine intestinal receptor was carried out by the method described by Dame et al. (Biochemistry 25, 4523–4534, 1986).

The test system of assay [4] is HL-60 cells. Put plainly: Differentiation of HL-60 promyelocytes into monocytes. In kind it is cell-based. To be noted: FIG. 2. As to the method:
FIG. 2 is a graph illustrating the percent HL-60 cell differentiation as a function of the concentration of (20S)-1α-hydroxy-2α-methyl-19-nor-vitamin D3, (20S)-1α-hydroxy-2β-methyl-19-nor-vitamin D3, and of 1α,25-dihydroxyvitamin D3.
The differentation of HL-60 promyelocytic into monoctyes was determined as described by Ostrem et al. (J. Boil. Chem. 262, 14164–14171, 1987).

The mark [5] stands for this setting: 130 pmol/day i.p. daily for 7 days.
Where [6] appears, read: 260 pmol/day i.p. daily for 7 days.

In the case of `C=C1/C(=C\C=C2/CCC[C@]3(C)[C@@H]([C@H](C)CCCC(C)(C)O)CC[C@@H]23)C[C@@H](O)C[C@@H]1O` [1α,25-(OH)2D3, 1α,25-dihydroxyvitamin D3, reference compound], the entries for the “Ca transport S/M (mean ± SEM)” value in assay [1] (setting [5]) and in assay [1] (setting [6]) were 5.3 ± 0.42 and 6.5 ± 0.84, respectively. Also, the “Serum Ca (mean ± SEM)” value in assay [2] (setting [5]) turned out to be 5.0 ± 0.05; in assay [2] (setting [6]) it was 5.5 ± 0.16.

On to `CC(C)CCC[C@H](C)C1CCC2/C(=C/C=C3C[C@@H](O)C(C)[C@H](O)C3)CCC[C@@]21C` (stereo partly drawn) [(20S)-1α-(OH)-2β-methyl-19-nor-D3, (20S)-1α-hydroxy-2β-methyl-19-nor-vitamin D3], for which the “Binding to the vitamin D receptor (in words)” value is “much less active than 1,25(OH)2D3” in assay [3] and “does not bind” in assay [3] (listed as 2β-methyl-(20S)-1α-hydroxyvitamin D3). Also, the “Ca transport S/M (mean ± SEM)” value in assay [1] (setting [5]) is listed as 6.8 ± 0.73; in assay [1] (setting [6]) it was 5.7 ± 0.45. The “Activity in stimulating intestinal calcium transport relative to 1,25-(OH)2D3 (in words)” value in assay [1] is given as “about the same as 1,25-(OH)2D3”. Also, the “Serum Ca (mean ± SEM)” value in assay [2] (setting [5]) is on record as 4.8 ± 0.04; in assay [2] (setting [6]), 5.1 ± 0.04. The “Bone calcium mobilization activity relative to 1,25-(OH)2D3 (in words)” value in assay [2] is on record as “about the same as 1,25-(OH)2D3”. In addition, in assay [4], the “Potency on HL-60 differentiation relative to 1,25-(OH)2D3 (in words)” value was “only slightly less active than 1,25-(OH)2D3”. The “HL-60 differentiation activity, times less active than 1,25(OH)2D3” value in assay [4] (relative to 1,25(OH)2D3) came to 100 times.

Take `CC(C)CCC[C@H](C)C1CCC2/C(=C/C=C3C[C@@H](O)C(C)[C@H](O)C3)CCC[C@@]21C` (stereo partly drawn) [(20S)-1α-(OH)-2α-methyl-19-nor-D3, (20S)-1α-hydroxy-2α-methyl-19-nor-vitamin D3]: the “Binding to the vitamin D receptor (in words)” value in assay [3] was “much less active than 1,25(OH)2D3”. In addition, the “Affinity for the vitamin D receptor, fold less than 1α,25-dihydroxyvitamin D3” value in assay [3] (relative to 1,25-(OH)2D3) is 100 fold. In addition, the “Ca transport S/M (mean ± SEM)” value in assay [1] (setting [5]) came to 8.6 ± 0.90; in assay [1] (setting [6]), 6.7 ± 0.68. The “Activity in stimulating intestinal calcium transport relative to 1,25-(OH)2D3 (in words)” value in assay [1] is listed as “high activity relative to that of 1,25-(OH)2D3”. The “Serum Ca (mean ± SEM)” value is reported as 10.0 ± 0.20 in assay [2] (setting [5]) and 12.7 ± 0.15 in assay [2] (setting [6]). In addition, in assay [2], the “Bone calcium mobilization activity relative to 1,25-(OH)2D3 (in words)” value was “higher bone calcium mobilization activity, as compared to 1,25-(OH)2D3”. Also, the results for the “Potency on HL-60 differentiation relative to 1,25-(OH)2D3 (in words)” value in assay [4] (listed as (20S)-1α-Hydroxy-2α-methyl-19-nor-vitamin D3) and in assay [4] (listed as (20S)-1α-hydroxy-2α-methyl-19-nor-vitamin D3) were “only slightly less active than 1,25-(OH)2D3” and “almost as potent as 1,25-(OH)2D3”, respectively.

The values above are taken from patent publication US7064115B2, “(20S)-1α-hydroxy-2α-methyl and 2β-methyl-19-nor-vitamin D3 and their uses” (Wisconsin Alumni Research Foundation, priority 2002, dated 2006).
